Experiments:
[1] = test system: intracellular Ca^2+ stores; assay: Ca2+ release from intracellular stores (FURA-2AM loaded cells); format: cell-based; design: key to Ca^2+ (Ca^2+ release from intracellular stores): a “+” denotes release; a “+/−” denotes inconclusive
From the text: (§1) As a non-limiting example, compounds 1272 and 1273 (set forth in Table 1) were synthesized starting from 3-bromoaniline, which upon condensation with hydroxylamine and chloral hydrate followed by concentrated sulfuric acid yielded an inseparable regioisomeric mixture of 4- and 6-bromo isatins. The addition of the two phenyl groups to the three position of the oxindole allowed easy chromatographic separation of the 4- and 6-bromo-3,3-diphenyloxindoles 1272 and 1273. Table 1 sets forth biological data for diaryloxindole compounds including, but not limited to 1272 and 1273. For Tables 1-14, Ca^2+ refers to Ca^2+ release from intracellular stores where a “+” denotes release and a “+/−” denotes inconclusive; eIF2α-P refers to phosphorylation of eIF2α measured by Western blot; SRB refers to the inhibitory concentration to reduce cell growth by 50% (IC50) for growth inhibition of A549 lung cancer cells; and n.d. is not determined.
(§2) Without intending to be bound by theory, the mechanism of action of translation initiation inhibitors is set forth in FIG. 1, and includes the depletion (complete or partial depletion) of intracellular calcium (Ca^2+) stores and phosphorylation of eIF2α. Compounds synthesized using the approaches described herein were screened for their ability to partially deplete intracellular Ca^2+ stores using FURA-2AM loaded cells (Benzaquen et al. (1995) Nature Medicine, 1:534, incorporated herein by reference in its entirety for all purposes). A limited subset of compounds were further screened for their ability to deplete endoplasmic reticulum (ER) Ca^2+. The Ca^2+ content of the ER was monitored using ER-targeted, Ca^2+ sensitive, recombinant proteins. These recombinant proteins emitted light by fluorescent resonance energy transfer (FRET) as a function of the Ca^2+ content of the medium. Such assays are previously described (Miyawaki, A.; Mizuno, H.; Llopis, J.; Tsien, R. Y.; Jalink, K. Cameleons as cytosolic and intra-organellar calcium probes, Oxford University Press: Oxford, London, 2001; pp 3-16, incorporated herein by reference in its entirety for all purposes). Compounds that depleted Ca^2+ were further evaluated for their ability to phosphorylate eIF2α. eIF2α phosphorylation was measured by Western blot analysis using the phospho-specific anti-eIF2α antibody, as previously described (Aktas et al. (1998) Proc. Natl. Acad. Sci. USA, 95:8280, incorporated herein by reference in its entirety for all purposes).

[2] = test system: eIF2α; assay: eIF2α phosphorylation measured by Western blot; format: cell-based; conditions: for eIF2α-P (phosphorylation of eIF2α measured by Western blot): unit or reference not given
From the text: as §1, §2

[3] = test system: A549 lung cancer cells; assay: SRB growth inhibition of A549 lung cancer cells; format: cell-based, human; conditions: A549 lung cancer cells; unit inferred; read-out: SRB (IC50 for growth inhibition of A549 lung cancer cells)
From the text: As a non-limiting example, compounds 1272 and 1273 (set forth in Table 1) were synthesized starting from 3-bromoaniline, which upon condensation with hydroxylamine and chloral hydrate followed by concentrated sulfuric acid yielded an inseparable regioisomeric mixture of 4- and 6-bromo isatins. The addition of the two phenyl groups to the three position of the oxindole allowed easy chromatographic separation of the 4- and 6-bromo-3,3-diphenyloxindoles 1272 and 1273. Table 1 sets forth biological data for diaryloxindole compounds including, but not limited to 1272 and 1273. For Tables 1-14, Ca^2+ refers to Ca^2+ release from intracellular stores where a “+” denotes release and a “+/−” denotes inconclusive; eIF2α-P refers to phosphorylation of eIF2α measured by Western blot; SRB refers to the inhibitory concentration to reduce cell growth by 50% (IC50) for growth inhibition of A549 lung cancer cells; and n.d. is not determined. […]

| SMILES | Ca^2+ (Ca^2+ release from intracellular stores) [1] | eIF2α-P (phosphorylation of eIF2α measured by Western blot) [2] | IC50 [3] | eIF2α phosphorylation (in words) [2] | Ca^2+ release / depletion of intracellular Ca^2+ (in words) [1] |
| --- | --- | --- | --- | --- | --- |
| CCCc1ccc(O)c(C2(c3ccccc3)C(=O)Nc3ccccc32)c1 (centres unmarked) [Compound 1283] | + | 7.67 | 3 µM | – | – |
| O=C1Nc2ccccc2C1(c1ccccc1)c1ccc(O)c(F)c1 (centres unmarked) [Compound 1244] | + | 1.38 | 12 µM | – | – |
| CCc1ccc(O)c(C2(c3ccccc3)C(=O)Nc3ccccc32)c1 (centres unmarked) [Compound 1285] | + | 2.96 | 8 µM | – | – |
| COc1ccccc1C1(c2ccccc2)C(=O)Nc2ccccc21 (centres unmarked) [Compound 1292] | +/− | 1.04 | 9 µM | – | – |
| CC(C)(C)c1ccc(O)c(C2(c3ccccc3)C(=O)Nc3c(C(=O)O)cccc32)c1 (centres unmarked) [Compound 1408] | + | 2.08 | > 20 µM | – | – |
| O=C1Nc2ccc(Br)cc2C1(c1ccccc1)c1ccccc1 [Compound 1205] | + | 2.05 | 9 µM | none of the compounds exhibited an increase in eIF2α phosphorylation relative to compound 1392 | – |
| CCCCCCCc1ccc(O)c(C2(c3ccccc3)C(=O)Nc3ccccc32)c1 (centres unmarked) [Compound 1279] | +/− | 3.49 | 3 µM | – | – |
| O=C1Nc2ccccc2C1(c1ccccc1)c1ccccc1 [Compound 1194] | + | 2.5 | 13 µM | – | – |
| O=C1Nc2c(Br)cccc2C1(c1ccccc1)c1ccccc1 [Compound 1207] | +/− | 2.01 | 3 µM | none of the compounds exhibited an increase in eIF2α phosphorylation relative to compound 1392 | abrogated Ca^2+ depletion activity |
| CCCCc1ccc(C2(c3ccccc3)C(=O)Nc3ccccc32)cc1 (centres unmarked) [Compound 1298] | +/− | 0.45 | 8 µM | – | – |
| COC(=O)COc1ccc(C(C)(C)C)cc1C1(c2ccccc2)C(=O)Nc2ccccc21 (centres unmarked) [Compound 1402] | + | 3.94 | 9 µM | – | – |
| O=C1Nc2ccccc2C1(c1ccc(Cl)cc1)c1ccccc1O (centres unmarked) [Compound 1208] | + | 1.42 | 10 µM | – | – |
| Cc1cc(C2(c3ccccc3)C(=O)Nc3ccccc32)c(NS(=O)(=O)Cc2ccccc2)cc1O (centres unmarked) [Compound 1405] | + | 1.84 | 4 µM | – | – |
| CC(C)(C)c1cccc(C2(c3ccccc3)C(=O)Nc3ccccc32)c1 (centres unmarked) [Compound 1217] | + | 1.5 | 4 µM | – | – |
| CC(C)(C)c1ccc(O)c(C2(c3ccc(F)cc3)C(=O)Nc3ccccc32)c1 (centres unmarked) [Compound 1210] | + | 1.86 | 4 µM | – | – |
| COc1ccc(S(=O)(=O)Nc2cc(O)c(C)cc2C2(c3ccccc3)C(=O)Nc3ccccc32)cc1 (centres unmarked) [Compound 1590] | + | 1.12 | 5 µM | – | – |
| CCc1cccc2c1NC(=O)C2(c1ccccc1)c1cc(C(C)(C)C)ccc1O (centres unmarked) [Compound 1256] | + | 1.3 | 3 µM | – | – |
| O=C1Nc2cccc(Br)c2C1(c1ccccc1)c1ccccc1 [Compound 1272] | + | 1.63 | 8 µM | none of the compounds exhibited an increase in eIF2α phosphorylation relative to compound 1392 | – |
| O=C1Nc2cc(Br)ccc2C1(c1ccccc1)c1ccccc1 [Compound 1273] | + | 1.72 | 6 µM | none of the compounds exhibited an increase in eIF2α phosphorylation relative to compound 1392 | – |
| O=C1Nc2ccc(Cl)cc2C1(c1ccccc1)c1ccccc1 [Compound 1206] | + | 1.58 | 9 µM | – | – |
| CCCCCCCCCc1ccc(O)c(C2(c3ccccc3)C(=O)Nc3ccccc32)c1 (centres unmarked) [Compound 1280] | +/− | 3.89 | 3 µM | – | – |
| CC(C)(C)c1ccc(O)c(C2(c3ccccc3)C(=O)Nc3cc(Br)ccc32)c1 (centres unmarked) [Compound 1235] | + | 3.2 | 4 µM | – | – |
| CC(C)(C)c1ccc(C2(c3ccccc3O)C(=O)Nc3ccccc32)cc1 (centres unmarked) [Compound 1239] | + | 1.88 | 8 µM | – | – |
| CC(C)(C)c1ccc(O)c(C2(c3ccccc3)C(=O)Nc3cccc(Br)c32)c1 (centres unmarked) [Compound 1234] | + | 2.57 | 6 µM | – | – |
| CC(C)Cc1ccc(C2(c3ccccc3)C(=O)Nc3ccccc32)cc1 (centres unmarked) [Compound 1297] | + | 0.7 | 8 µM | – | – |
| CC(C)c1ccc(O)c(C2(c3ccccc3)C(=O)Nc3ccccc32)c1 (centres unmarked) [Compound 1282] | + | 4.96 | 4 µM | – | – |
| CC(C)(C)c1ccc(O)c(C2(c3ccccc3)C(=O)Nc3ccc([N+](=O)[O-])cc32)c1 (centres unmarked) [Compound 1212] | + | 1.28 | 4 µM | – | – |
| CC(C)(C)c1ccc(C2(c3ccccc3)C(=O)Nc3ccccc32)cc1 (centres unmarked) [Compound 1349] | + | 1.27 | 8 µM | – | – |
| CC(C)(C)c1ccc(O)c(C2(c3ccccc3)C(=O)Nc3c(C(F)(F)F)cccc32)c1 (centres unmarked) [Compound 1230] | +/− | 0.41 | 3 µM | – | – |
